Target: human LPAR1 (Homo sapiens (Human), UniProt Q92633)
Assay: LPAR1 intracellular calcium mobilization assay (antagonist mode, FLIPR)
Type: cell-based
Details: CHO-K1 EDG2 cells expressing human LPAR1, LPA 18:2 at EC80 (100 nM), test compound 0.5 nM to 10 μM

Sequence of human LPAR1 (Q92633 whole entry): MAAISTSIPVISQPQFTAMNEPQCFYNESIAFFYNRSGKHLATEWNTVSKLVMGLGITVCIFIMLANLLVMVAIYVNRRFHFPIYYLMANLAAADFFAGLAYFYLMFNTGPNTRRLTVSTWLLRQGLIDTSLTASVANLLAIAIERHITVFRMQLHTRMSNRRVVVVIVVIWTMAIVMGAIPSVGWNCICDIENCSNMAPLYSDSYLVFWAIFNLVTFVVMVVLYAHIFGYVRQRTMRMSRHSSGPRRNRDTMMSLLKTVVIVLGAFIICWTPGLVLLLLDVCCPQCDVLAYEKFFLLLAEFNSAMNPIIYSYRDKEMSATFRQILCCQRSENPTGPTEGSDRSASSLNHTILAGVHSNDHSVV

SMILES	EC50
C[C@@H](OC(=O)Nc1c(-c2ccc(NC(=O)C3CC3(C)C)cn2)nnn1C)c1cccnc1Cl (stereo partly drawn) [Compound 49, (R)-1-(2-chloropyridin-3-yl)ethyl (4-(5-(2,2-dimethylcyclopropane-1-carboxamido)pyridin-2-yl)-1-methyl-1H-1,2,3-triazol-5-yl)carbamate]	353 nM
C[C@@H](OC(=O)Nc1c(-c2ccc(NC(=O)[C@H]3C[C@@H]3C#N)cn2)nnn1C)c1cccnc1Cl [Compound 50, (R)-1-(2-chloropyridin-3-yl)ethyl (4-(5-((1S,2S)-2-cyanocyclopropane-1-carboxamido)pyridin-2-yl)-1-methyl-1H-1,2,3-triazol-5-yl)carbamate]	1760 nM
C[C@@H](OC(=O)Nc1c(-c2ccc(NC(=O)[C@@H]3C[C@H]3C#N)cn2)nnn1C)c1cccnc1Cl [Compound 51, (R)-1-(2-chloropyridin-3-yl)ethyl (4-(5-((1R,2R)-2-cyanocyclopropane-1-carboxamido)pyridin-2-yl)-1-methyl-1H-1,2,3-triazol-5-yl)carbamate]	88.7 nM
C[C@@H](OC(=O)Nc1c(-c2ccc(NC(=O)[C@H]3C[C@@H]3F)cn2)nnn1C)c1cccnc1Cl [Compound 52, (R)-1-(2-chloropyridin-3-yl)ethyl (4-(5-((1R,2S)-2-fluorocyclopropane-1-carboxamido)pyridin-2-yl)-1-methyl-1H-1,2,3-triazol-5-yl)carbamate]	622 nM
C[C@@H](OC(=O)Nc1c(-c2ccc(NC(=O)[C@@H]3C[C@@H]3F)cn2)nnn1C)c1cccnc1Cl [Compound 53, (R)-1-(2-chloropyridin-3-yl)ethyl (4-(5-((1S,2S)-2-fluorocyclopropane-1-carboxamido)pyridin-2-yl)-1-methyl-1H-1,2,3-triazol-5-yl)carbamate]	1460 nM
C[C@@H](OC(=O)Nc1c(-c2ccc(NC(=O)C3CCO3)cn2)nnn1C)c1cccnc1Cl (stereo partly drawn) [Compound 54, (R)-1-(2-chloropyridin-3-yl)ethyl (1-methyl-4-(5-(oxetane-2-carboxamido)pyridin-2-yl)-1H-1,2,3-triazol-5-yl)carbamate]	7860 nM
C[C@@H](OC(=O)Nc1c(-c2ccc(NC(=O)C3(C(F)(F)F)CC3)cn2)nnn1C)c1cccnc1Cl [Compound 55, (R)-1-(2-chloropyridin-3-yl)ethyl (1-methyl-4-(5-(1-(trifluoromethyl)cyclopropane-1-carboxamido)pyridin-2-yl)-1H-1,2,3-triazol-5-yl)carbamate]	478 nM
C[C@@H](OC(=O)Nc1c(-c2ccc(NC(=O)[C@H]3C[C@H]3F)cn2)nnn1C)c1cccnc1Cl [Compound 56, (R)-1-(2-chloropyridin-3-yl)ethyl (4-(5-((1R,2R)-2-fluorocyclopropane-1-carboxamido)pyridin-2-yl)-1-methyl-1H-1,2,3-triazol-5-yl)carbamate]	1140 nM
C[C@@H](OC(=O)Nc1c(-c2ccc(NC(=O)C3COC3)cn2)nnn1C)c1cccnc1Cl [Compound 57, (R)-1-(2-chloropyridin-3-yl)ethyl (1-methyl-4-(5-(oxetane-3-carboxamido)pyridin-2-yl)-1H-1,2,3-triazol-5-yl)carbamate]	339 nM
C[C@@H](OC(=O)Nc1c(-c2ccc(NC(=O)c3cccnc3)cn2)nnn1C)c1cccnc1Cl [Compound 58, (R)-1-(2-chloropyridin-3-yl)ethyl (1-methyl-4-(5-(nicotinamido)pyridin-2-yl)-1H-1,2,3-triazol-5-yl)carbamate]	205 nM
C[C@@H](OC(=O)Nc1c(-c2ccc(NC(=O)CC#N)cn2)nnn1C)c1cccnc1Cl [Compound 59, (R)-1-(2-chloropyridin-3-yl)ethyl (4-(5-(2-cyanoacetamido)pyridin-2-yl)-1-methyl-1H-1,2,3-triazol-5-yl)carbamate]	264 nM
C[C@@H](OC(=O)Nc1c(-c2ccc(NC(=O)C3(F)CC3)cn2)nnn1C)c1cccnc1Cl [Compound 60, (R)-1-(2-chloropyridin-3-yl)ethyl (4-(5-(1-fluorocyclopropane-1-carboxamido)pyridin-2-yl)-1-methyl-1H-1,2,3-triazol-5-yl)carbamate]	140 nM
C[C@@H](OC(=O)Nc1c(-c2ccc(NC(=O)c3ccncc3)cn2)nnn1C)c1cccnc1Cl [Compound 61, (R)-1-(2-chloropyridin-3-yl)ethyl (4-(5-(isonicotinamido)pyridin-2-yl)-1-methyl-1H-1,2,3-triazol-5-yl)carbamate]	134 nM
C[C@@H](OC(=O)Nc1c(-c2ccc(NC(=O)[C@H]3C[C@H](F)C3)cn2)nnn1C)c1cccnc1Cl [Compound 62, (R)-1-(2-chloropyridin-3-yl)ethyl (4-(5-((1r,3R)-3-fluorocyclobutane-1-carboxamido)pyridin-2-yl)-1-methyl-1H-1,2,3-triazol-5-yl)carbamate]	110 nM
C[C@@H](OC(=O)Nc1c(-c2ccc(NC(=O)C3CCC3(F)F)cn2)nnn1C)c1cccnc1Cl (stereo partly drawn) [Compound 63, (R)-1-(2-chloropyridin-3-yl)ethyl (4-(5-(2,2-difluorocyclobutane-1-carboxamido)pyridin-2-yl)-1-methyl-1H-1,2,3-triazol-5-yl)carbamate]	120 nM
C[C@@H](OC(=O)Nc1c(-c2ccc(NC(=O)C34CC(C#N)(C3)C4)cn2)nnn1C)c1cccnc1Cl [Compound 64, (R)-1-(2-chloropyridin-3-yl)ethyl (4-(5-(3-cyanobicyclo[1.1.1]pentane-1-carboxamido)pyridin-2-yl)-1-methyl-1H-1,2,3-triazol-5-yl)carbamate]	76.4 nM
C[C@@H](OC(=O)Nc1c(-c2ccc(NC(=O)[C@@H]3CC3(F)F)cn2)nnn1C)c1cccnc1Cl [Compound 65, (R)-1-(2-chloropyridin-3-yl)ethyl (4-(5-((S)-2,2-difluorocyclopropane-1-carboxamido)pyridin-2-yl)-1-methyl-1H-1,2,3-triazol-5-yl)carbamate]	81.9 nM
C[C@@H](OC(=O)Nc1c(-c2ccc(NC(=O)C3(C#N)CCC3)cn2)nnn1C)c1cccnc1Cl [Compound 66, (R)-1-(2-chloropyridin-3-yl)ethyl (4-(5-(1-cyanocyclobutane-1-carboxamido)pyridin-2-yl)-1-methyl-1H-1,2,3-triazol-5-yl)carbamate]	66.6 nM
C[C@@H](OC(=O)Nc1c(-c2ccc(NC(=O)C3(C#N)CC3)cn2)nnn1C)c1cccnc1Cl [Compound 67, (R)-1-(2-chloropyridin-3-yl)ethyl (4-(5-(1-cyanocyclopropane-1-carboxamido)pyridin-2-yl)-1-methyl-1H-1,2,3-triazol-5-yl)carbamate]	30.8 nM
C[C@@H](OC(=O)Nc1c(-c2ccc(NC(=O)C34CC(C3)C4)cn2)nnn1C)c1cccnc1Cl [Compound 68, (R)-1-(2-chloropyridin-3-yl)ethyl (4-(5-(bicyclo[1.1.1]pentane-1-carboxamido)pyridin-2-yl)-1-methyl-1H-1,2,3-triazol-5-yl)carbamate]	40.8 nM
C[C@@H](OC(=O)Nc1c(-c2ccc(NC(=O)[C@@H]3C[C@H]3F)cn2)nnn1C)c1cccnc1Cl [Compound 69, (R)-1-(2-chloropyridin-3-yl)ethyl (4-(5-((1S,2R)-2-fluorocyclopropane-1-carboxamido)pyridin-2-yl)-1-methyl-1H-1,2,3-triazol-5-yl)carbamate]	53 nM
C[C@@H](OC(=O)Nc1c(-c2ccc(NC(=O)C34CC(F)(C3)C4)cn2)nnn1C)c1cccnc1Cl [Compound 70, (R)-1-(2-chloropyridin-3-yl)ethyl (4-(5-(3-fluorobicyclo[1.1.1]pentane-1-carboxamido)pyridin-2-yl)-1-methyl-1H-1,2,3-triazol-5-yl)carbamate]	47.8 nM
C[C@@H](OC(=O)Nc1c(-c2ccc(NC(=O)[C@H]3C[C@@H](F)C3)cn2)nnn1C)c1cccnc1Cl [Compound 71, (R)-1-(2-chloropyridin-3-yl)ethyl (4-(5-((1s,3S)-3-fluorocyclobutane-1-carboxamido)pyridin-2-yl)-1-methyl-1H-1,2,3-triazol-5-yl)carbamate]	89.7 nM
C[C@@H](OC(=O)Nc1c(-c2ccc(NC(=O)C34CC(C(F)(F)F)(C3)C4)cn2)nnn1C)c1cccnc1Cl [Compound 72, (R)-1-(2-chloroypridin-3-yl)ethyl (1-methyl-4-(5-(3-(trifluoromethyl)bicyclo[1.1.1]pentane-1-carboxamido)pyridin-2-yl)-1H-1,2,3-triazol-5-yl)carbamate]	17 nM
C[C@@H](OC(=O)Nc1c(-c2ccc(NC(=O)C3CC4(CCC4)C3)cn2)nnn1C)c1cccnc1Cl [Compound 73, (R)-1-(2-chloropyridin-3-yl)ethyl (1-methyl-4-(5-(spiro[3.3]heptane-2-carboxamido)pyridin-2-yl)-1H-1,2,3-triazol-5-yl)carbamate]	17.3 nM
C[C@@H](OC(=O)Nc1c(-c2ccc(NC(=O)C3(C#N)CC34CCC4)cn2)nnn1C)c1cccnc1Cl (stereo partly drawn) [Compound 74, (R)-1-(2-chloropyridin-3-yl)ethyl (4-(5-(1-cyanospiro[2.3]hexane-1-carboxamido)pyridin-2-yl)-1-methyl-1H-1,2,3-triazol-5-yl)carbamate]	1340 nM
C[C@@H](OC(=O)Nc1c(-c2ccc(NC(=O)C#CC3CC3)cn2)nnn1C)c1cccnc1Cl [Compound 75, (R)-1-(2-chloropyridin-3-yl)ethyl (4-(5-(3-cyclopropylpropiolamido)pyridin-2-yl)-1-methyl-1H-1,2,3-triazol-5-yl)carbamate]	23.4 nM
CC#CC(=O)Nc1ccc(-c2nnn(C)c2NC(=O)O[C@H](C)c2cccnc2Cl)nc1 [Compound 76, (R)-1-(2-chloropyridin-3-yl)ethyl (4 (5-(but-2-ynamido)pyridin-2-yl)-1-methyl-1H-1,2,3-triazol-5-yl)carbamate]	275 nM
C[C@@H](OC(=O)Nc1c(-c2ccc(NC(=O)C3CC4(C3)CC3(CCC3)C4)cn2)nnn1C)c1cccnc1Cl [Compound 77, (R)-1-(2-chloropyridin-3-yl)ethyl (4-(5-(dispiro[3.1.36.14]decane-2-carboxamido)pyridin-2-yl)-1-methyl-1H-1,2,3-triazol-5-yl)carbamate]	25.5 nM

From patent publication US11912686B2 (Gilead Sciences, Inc., priority 2020, dated 2024)
